Two molecules from patent US20210308103A1, “TASK-1 INHIBITORS FOR TREATMENT OF ATRIAL ARRHYTHMIAS” (Universität Heidelberg, priority 2018, published 2021) can be followed below.

Structures are written as SMILES.

Test [1] relates to atrial fibrillation (AF) in humans. Description: Cardioversion of atrial fibrillation in humans. The test is classed as in vivo, human. To be noted: injection via peripheral venous catheter, dose adapted to body weight. How it is done:
For cardioversion of atrial fibrillation (AF) in humans, doxapram can be injected via a peripheral venous catheter. The dose will be adapted to the body weight of the patient. Cardioversion is achieved within a few minutes (<30 minutes). The ECG of the patient is continuously monitored to detect the presence of atrial fibrillation (AF) or successful cardioversion. In case of an unsuccessful cardioversion, a second dose can be applied. If AF is present after applying the second dose, a conventional electrical cardioversion can be performed. To prevent AF episodes, patients can receive repeated a maintenance doses adapted to the body weight for oral or intravenous application.

The next test deals with porcine TASK-1 (Sus scrofa, UniProt A0A286ZMZ4). Description: TASK-1 current inhibition, voltage clamp in Xenopus laevis oocytes (porcine channel). To be noted: FIG. 1A. In kind it is cell-based. The text has this:
FIG. 1: Inhibitory effects of doxapram and ketodoxapram on TASK-1 K-ion channels, recorded by voltage-clamp measurements in Xenopus laevis oocytes. A) Concentration-effect curve for doxapram on porcine TASK-1; B) Concentration-effect curve for doxapram on human TASK-1; C) Concentration-effect curve for ketodoxapram on human TASK-1; […] E) Inhibition of TASK-1 by doxapram, ketodoxapnram, and mixtures thereof. Concentration-response curves for ketodoxapram and doxapram. TASK-1 current inhibition was recorded by voltage clamp measurements in Xenopus laevis oocytes according to standard protocols.

The next test deals with TASK-1 (Homo sapiens, UniProt O14649). Description: TASK-1 current inhibition, patch-clamp in human atrial cardiomyocytes. In kind it is cell-based. Also on record: human atrial cardiomyocytes isolated from heart auricles of patients with sinus rhythm; endogenous in cells; host or cells: human atrial cardiomyocytes from heart auricles of patients with sinus rhythm. Conditions: cardiomyocytes from heart auricles of patients with sinus rhythm, FIG. 2. The text has this:
FIG. 2: Effects of ketodoxapram and doxapram in human atrial cardiomyocytes recorded by voltage-clamp measurements.

Chain of TASK-1 (O14649 whole entry): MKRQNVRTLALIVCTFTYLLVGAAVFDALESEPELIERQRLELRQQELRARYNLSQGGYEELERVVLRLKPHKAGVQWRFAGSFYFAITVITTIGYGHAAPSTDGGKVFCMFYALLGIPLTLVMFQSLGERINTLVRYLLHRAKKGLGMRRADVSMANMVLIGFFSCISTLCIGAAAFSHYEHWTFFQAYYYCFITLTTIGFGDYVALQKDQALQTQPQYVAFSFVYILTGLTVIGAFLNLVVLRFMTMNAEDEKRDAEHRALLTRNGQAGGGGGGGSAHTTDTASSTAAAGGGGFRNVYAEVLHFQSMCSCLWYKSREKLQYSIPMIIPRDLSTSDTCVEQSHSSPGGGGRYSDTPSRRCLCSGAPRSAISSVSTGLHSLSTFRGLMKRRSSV
Chain of porcine TASK-1 (A0A286ZMZ4 1-401): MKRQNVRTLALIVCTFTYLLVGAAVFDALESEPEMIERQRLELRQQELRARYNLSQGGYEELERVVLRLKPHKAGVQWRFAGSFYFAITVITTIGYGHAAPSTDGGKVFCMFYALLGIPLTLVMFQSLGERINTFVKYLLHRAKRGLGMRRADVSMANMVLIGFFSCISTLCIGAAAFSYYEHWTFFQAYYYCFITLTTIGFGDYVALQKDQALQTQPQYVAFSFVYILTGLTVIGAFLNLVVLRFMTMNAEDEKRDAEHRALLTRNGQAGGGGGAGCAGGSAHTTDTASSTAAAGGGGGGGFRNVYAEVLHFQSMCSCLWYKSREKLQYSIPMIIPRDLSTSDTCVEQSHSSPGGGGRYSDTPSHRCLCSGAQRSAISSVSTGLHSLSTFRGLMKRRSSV

Take `CCN1CC(CCN2CCOCC2)C(c2ccccc2)(c2ccccc2)C1=O` (stereo not drawn) [doxapram, 1-ethyl-4-(2-morpholin-4-ylethyl)-3,3-diphenyl-pyrrolidin-2-one]: the Time to cardioversion in test [1] was less than 30 min. In addition, the IC50 (usually the concentration at which inhibition is half-maximal) against porcine TASK-1 amounted to 1000 nM.

With `CCN1CC(CCN2CCOCC2=O)C(c2ccccc2)(c2ccccc2)C1=O` (stereo not drawn) [ketodoxapram, 4-(2-(1-ethyl-5-oxo-4,4-diphenyl-3-pyrrolidinyl)ethyl)-3-morpholinone], the “TASK-1 inhibition compared with doxapram” value on TASK-1 is “significantly stronger than inhibition by doxapram”.
